2 molecules from publication PMC3206575 (The Journal of Cell Biology, 1999) can be followed below.

For test [1], the target named is T1, DRal (Drosophila Ral), GST-DRal (Drosophila melanogaster, UniProt P48555, G20V).
T1 sequence (P48555 1-201 G20V): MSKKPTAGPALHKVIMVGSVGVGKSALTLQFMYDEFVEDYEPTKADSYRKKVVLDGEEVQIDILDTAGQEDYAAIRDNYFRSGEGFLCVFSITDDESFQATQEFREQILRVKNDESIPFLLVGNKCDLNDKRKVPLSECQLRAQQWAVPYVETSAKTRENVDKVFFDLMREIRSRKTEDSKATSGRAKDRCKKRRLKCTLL
As to the kind of experiment: [3H]GDP binding to GST fusion protein.

Test [2] deals with T2, DRal (Drosophila Ral), GST-DRal (Drosophila melanogaster, UniProt P48555, S25N).
T2 sequence (P48555 1-201 S25N): T1 sequence (P48555 1-201 G20V) with V20G, S25N
As to the kind of experiment: [3H]GDP binding to GST fusion protein.

Test [3] concerns the target T3, DRal (Drosophila Ral), GST-DRal (Drosophila melanogaster, UniProt P48555).
T3 sequence (P48555 1-201): T1 sequence (P48555 1-201 G20V) with V20G
Description: [3H]GDP binding to GST fusion protein.

Test [4] addresses T2, DRal (Drosophila Ral), GST-DRal. As to the kind of experiment: […]GTPγS binding to GST fusion protein. For orientation: GTPγS is a poorly hydrolysed GTP analogue; its binding reports G protein activation.
Test [5] has as its target T1, DRal (Drosophila Ral), GST-DRal. Description: […]GTPγS binding to GST fusion protein.
Test [6] addresses T3, DRal (Drosophila Ral), GST-DRal. Description: […]GTPγS binding to GST fusion protein.

SMILES strings stand for the structures. Residue numbers refer to the chain shown, from its start.

On to `Nc1nc2c(ncn2[C@@H]2O[C@H](COP(=O)(O)OP(=O)(O)O)[C@@H](O)[C@H]2O)c(=O)[nH]1` [GDP], for which the values for the dissociation constant Kd in test [1], in test [2] and in test [3] were 8.4 nM, 95.1 nM and 14 nM, respectively.

In the case of `Nc1nc2c(ncn2[C@@H]2O[C@H](COP(=O)(O)OP(=O)(O)OP(O)(O)=S)[C@@H](O)[C@H]2O)c(=O)[nH]1` [GTPγS], the equilibrium dissociation constant (Kd) in test [4] was found to be 406 nM; in test [5], 38 nM; in test [6], 30.7 nM.

Broadly, the Kd is the constant that tells how readily two partners part at equilibrium.
